Measurements taken from PubChem BioAssay AID449762 (Southern Research Specialized Biocontainment Screening …, 2010).
pIC50: −log10 of the molar value. Records with an inconclusive call do not appear.

Test system: M. tuberculosis H37Rv growth inhibition, 7H9 media
Experiment: M. tuberculosis growth inhibition, HTS (AID 449762);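 note: bacterial growth assessed after seven days of incubation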
Conditions: for IC90: measured here: IC90 growth inhibition

Q: With `Cc1ccc(-c2ccc(C3C(C#N)=C(N)Oc4n[nH]c(C)c43)o2)cc1` (stereo not given) as the molecule, how does the pIC50 read?
A: 4.61

Q: And the IC90?
A: 52 µM

Q: What does the source list for `CC1(c2nnc(-c3ccncc3)o2)CC(c2ccccc2)=NO1` (stereo not given)?
A: pIC50: 4.20; IC90: > 100 µM

Q: With `O=c1c2c(-c3ccccc3)csc2ncn1/N=C/c1ccc(O)c([N+](=O)[O-])c1` as the molecule, how does the pIC50 read?
A: 4.87

Q: What about the IC90 of the same molecule?
A: 52.9 µM

Q: `Nc1cc([N+](=O)[O-])cc2oc(-c3ccccc3)cc12` was tested. Which pIC50 did it give?
A: 4.01

Q: And the IC90?
A: > 100 µM

Q: `C/C(=N\NC(=O)c1cc2ccccc2cc1O)c1ccc(C)o1` was tested. Which pIC50 did it give?
A: 5.00

Q: And the IC90?
A: 36.3 µM

Q: `O=C(NC(=S)N1CCc2ccccc21)c1ccc(Br)o1` was tested. Which pIC50 did it give?
A: 5.25

Q: What about the IC90 of the same molecule?
A: 9.62 µM

Q: With `COc1ccccc1C(=O)NC(=S)/C=C1/N(C)c2ccccc2C1(C)C` as the molecule, how does the pIC50 read?
A: 4.46

Q: What about the IC90 of the same molecule?
A: 43.9 µM

Q: `COc1cc(NC(C)CCCN)c2ncccc2c1` (stereo not given) was tested. Which pIC50 did it give?
A: 5.04

Q: And the IC90?
A: 13.9 µM

Q: How did the pIC50 turn out when `COc1ccc(-c2nnc3sc(C4CCCCC4)nn23)cc1OC` was run?
A: 4.44

Q: And the IC90?
A: 55.3 µM

Q: Which results are given for `Clc1ccc(CNc2nc(CN3CCOCC3)nc3scc(-c4ccccc4)c23)cc1`?
A: pIC50: 4.76; IC90: 43.6 µM

Q: With `COc1ccc(C(C)=O)cc1COC(=O)c1ccc2ccccc2n1` as the molecule, how does the pIC50 read?
A: 4.56

Q: And the IC90?
A: > 100 µM

Q: How did the pIC50 turn out when `COC(=O)CSc1ncnc2c1cnn2-c1ccc(C)cc1C` was run?
A: 5.42

Q: What about the IC90 of the same molecule?
A: 7.95 µM

Q: Which results are given for `COC(=O)c1cc(Sc2cccc(Cl)c2Cl)ccn1`?
A: pIC50: 4.69; IC90: 30.7 µM

Q: Which IC90 does the source give for `Nc1ccc(N=Nc2ccccc2)c(N)n1` here?
A: > 100 µM

Q: `N#CC(C(=O)Nc1ccccc1)=C1Nc2ccccc2N1` was tested. Which pIC50 did it give?
A: 4.46

Q: What about the IC90 of the same molecule?
A: > 100 µM

Q: With `COc1cc(C2c3cc4c(cc3C(OC3OC5COC(c6cccs6)OC5C(O)C3O)C3COC(=O)C23)OCO4)cc(OC)c1O` (stereo not given) as the molecule, how does the pIC50 read?
A: 4.88

Q: And the IC90?
A: 29.5 µM

Q: With `O=C(Cn1ncc(Cl)c(Cl)c1=O)c1ccc2c(c1)OCCO2` as the molecule, how does the pIC50 read?
A: 5.17

Q: And the IC90?
A: 12.2 µM

Q: How did the pIC50 turn out when `S=C(Nc1ccc(Nc2ccccc2)cc1)Nc1ccccn1` was run?
A: 4.31

Q: And the IC90?
A: > 50 µM

Q: How did the pIC50 turn out when `CCOc1cc(/C=N/Nc2nc(Nc3ccccc3)nc(N3CCCCC3)n2)ccc1OCC(=O)O` was run?
A: 5.15

Q: And the IC90?
A: 23.4 µM

Q: With `CC(C)(C)Nc1nc(NC(C)(C)C)nc(-n2ccnc2)n1` as the molecule, how does the pIC50 read?
A: 4.84

Q: And the IC90?
A: > 100 µM

Q: With `CCOC(=O)c1[nH]c2ccc(F)cc2c1NC(=O)CN1CCN(C/C=C/c2ccccc2)CC1` as the molecule, how does the pIC50 read?
A: 4.72

Q: And the IC90?
A: 27.1 µM

Q: With `Cc1c(Cl)ccc2sc(N3CCN(C(=O)C4=COCCO4)CC3)nc12` as the molecule, how does the pIC50 read?
A: 4.58

Q: What about the IC90 of the same molecule?
A: 59 µM

Q: What does the source list for `CCOc1cccc2cc(C(=O)Nc3nccs3)c(=O)oc12`?
A: pIC50: 6.47; IC90: 29.6 µM
